Read-outs that look alike come from different tables or passages of the source.
Test system: HCV replicons (NS3-NS5B regions of HCV type Ib) in Huh-7 luc/neo cells
Assay: HCV replicon assay (Huh-Luc luciferase reporter)
Assay type: cell-based
Details: Hepatitis C virus, Huh-7, 72 h
Experimental: The in vitro antiviral activity against HCV of the compounds of formula (I) was tested in a cellular HCV replicon system based on Lohmann et al. (1999) Science 285:110-113, with the further modifications described by Krieger et al. (2001) Journal of Virology 75: 4614-4624, which is further exemplified in the examples section. This model, while not a complete infection model for HCV, is widely accepted as the most robust and efficient model of autonomous HCV RNA replication currently available. […] It will be appreciated that it is important to distinguish between compounds that specifically interfere with HCV functions from those that exert cytotoxic or cytostatic effects in the HCV replicon model, and as a consequence cause a decrease in HCV RNA or linked reporter enzyme concentration. Assays are known in the field for the evaluation of cellular cytotoxicity based for example on the activity of mitochondrial enzymes using fluorogenic redox dyes such as resazurin. Furthermore, cellular counter screens exist for the evaluation of non-selective inhibition of linked reporter gene activity, such as firefly luciferase. Appropriate cell types can be equipped by stable transfection with a luciferase reporter gene whose expression is dependent on a constitutively active gene promoter, and such cells can be used as a counter-screen to eliminate non-selective inhibitors.
The compounds of formula (I) were examined for activity in the inhibition of HCV RNA replication in a cellular assay. […] The cellular assay was based on a bicistronic expression construct, as described by Lohmann et al. (1999) Science vol. 285 pp. 110-113 with modifications described by Krieger et al. (2001) Journal of Virology 75: 4614-4624, in a multi-target screening strategy. In essence, the method was as follows.
The assay utilized the stably transfected cell line Huh-7 luc/neo (hereafter referred to as Huh-Luc). This cell line harbors an RNA encoding a bicistronic expression construct comprising the wild type NS3-NS5B regions of HCV type Ib translated from an Internal Ribosome Entry Site (IRES) from encephalomyocarditis virus (EMCV), preceded by a reporter portion (FfL-luciferase), and a selectable marker portion (neo^R, neomycine phosphotransferase). The construct is bordered by 5′ and 3′ NTRs (non-translated regions) from HCV type Ib. Continued culture of the replicon cells in the presence of G418 (neo^R) is dependent on the replication of the HCV RNA. The stably transfected replicon cells that express HCV RNA, which replicates autonomously and to high levels, encoding inter alia luciferase, are used for screening the antiviral compounds.
The replicon cells were plated in 384 well plates in the presence of the test and control compounds which were added in various concentrations. Following an incubation of three days, HCV replication was measured by assaying luciferase activity (using standard luciferase assay substrates and reagents and a Perkin Elmer ViewLux™ ultraHTS microplate imager). Replicon cells in the control cultures have high luciferase expression in the absence of any inhibitor. The inhibitory activity of the compound on luciferase activity was monitored on the Huh-Luc cells, enabling a dose-response curve for each test compound.

[1] = Huh-Luc replicon cells, three days incubation, luciferase activity, read-out: EC50

Row | SMILES | EC50 [1] [nM] | EC50 [nM]
1 | COc1ccc2c(O[C@@H]3C[C@H]4C(=O)N[C@]5(C(=O)NS(=O)(=O)C6CC6)C[C@H]5/C=C\CCCCCC(=O)N4C3)cc(-c3nc(C(C)C)cs3)nc2c1C [Compound 59, N-[17-[2-(4-isopropylthiazol-2-yl)-7-methoxy-8-methylquinolin-4-yloxy]-2,14-dioxo-3,15-diazatricyclo[13.3.0.0^4,6]octadec-7-ene-4-carbonyl]-(cyclopropyl)sulfonamide] | 3 | 
2 | COc1ccc2c(O[C@@H]3C[C@H]4C(=O)N[C@]5(C(=O)NS(=O)(=O)C6CC6)C[C@H]5/C=C\CCCCCCC(=O)N4C3)cc(-c3cscn3)nc2c1 [Compound 36, N-[18-[7-methoxy-2-(thiazol-4-yl)quinolin-4-yloxy]-2,15-dioxo-3,16-diazatricyclo[14.3.0.0^4,6]nonadec-7-ene-4-carbonyl](cyclopropyl)-sulfonamide] | 4 | 
3 | COc1ccc2c(O[C@@H]3C[C@H]4C(=O)N[C@]5(C(=O)O)C[C@H]5/C=C\CCCCCCC(=O)N4C3)cc(-c3nc(C(C)C)cs3)nc2c1C [Compound 29, 18-[2-(4-isopropylthiazol-2-yl)-7-methoxy-8-methylquinolin-4-yloxy]-2,15-dioxo-3,16-diazatricyclo[14.3.0.0^4,6]nonadec-7-ene-4-carboxylic acid] | 1960 | 
4 | COc1ccc2c(O[C@@H]3C[C@H]4C(=O)N[C@]5(C(=O)O)C[C@H]5/C=C\CCCCCC(=O)N4C3)cc(-c3nc(C(C)C)cs3)nc2c1Cl [Compound 56, 17-[8-chloro-2-(4-isopropylthiazol-2-yl)-7-methoxyquinolin-4-yloxy]-2,14-dioxo-3,15-diazatricyclo[13.3.0.0^4,6]octadec-7-ene-4-carboxylic acid] | 318 | 
5 | COc1ccc2c(O[C@@H]3C[C@H]4C(=O)N[C@]5(C(=O)NS(=O)(=O)C6CC6)C[C@H]5/C=C\CCCCCCC(=O)N4C3)cc(-c3nc(C(C)C)cs3)nc2c1C [Compound 30, N-[18-[2-(4-isopropylthiazol-2-yl)-7-methoxy-8-methylquinolin-4-yloxy]-2,15-dioxo-3,16-diazatricyclo[14.3.0.0^4,6]nonadec-7-ene-4-carbonyl](cyclopropyl)sulfonamide] | 6 | 
6 | COc1ccc2c(O[C@@H]3C[C@H]4C(=O)N[C@]5(C(=O)NS(=O)(=O)C6CC6)C[C@H]5/C=C\CCCCCCC(=O)N4C3)cc(-c3nccs3)nc2c1Br [Compound 42, N-[18-[8-bromo-2-(thiazol-2-yl)-7-methoxyquinolin-4-yloxy]-2,15-dioxo-3,16-diazatricyclo[14.3.0.0^4,6]nonadec-7-ene-4-carbonyl]-(cyclopropyl)sulfonamide] | 2 | 
7 | COc1ccc2c(O[C@@H]3C[C@H]4C(=O)N[C@]5(C(=O)NS(=O)(=O)C6CC6)C[C@H]5/C=C\CCCCCC(C)(C)C(=O)N4C3)cc(-c3nc(C(C)C)cs3)nc2c1Cl [Compound 55, N-[18-[8-chloro-2-(4-isopropylthiazol-2-yl)-7-methoxyquinolin-4-yloxy]-14,14-dimethyl-2,15-dioxo-3,16-diazatricyclo[14.3.0.0^4,6]nonadec-7-ene-4-carbonyl](cyclopropyl)sulfonamide] | 198 | 
8 | COc1ccc2c(O[C@@H]3C[C@H]4C(=O)N[C@]5(C(=O)NS(=O)(=O)C6CC6)C[C@H]5/C=C\CCCCCCC(=O)N4C3)cc(-c3csc(NC(C)C)n3)nc2c1 [Compound 13, N-[[18-[2-[2-(isopropylamino)thiazol-4-yl]-7-methoxyquinolin-4-yloxy]-2,15-dioxo-3,16-diazatricyclo[14.3.0.0^4,6]nonadec-7-en-4-yl]carbonyl](cyclopropyl)sulfonamide] | 20 | 
9 | COc1ccc2c(O[C@@H]3C[C@H]4C(=O)N[C@]5(C(=O)NS(=O)(=O)C6CC6)C[C@H]5/C=C\CCCCCCC(=O)N4C3)nc(-n3cccn3)cc2c1 [Compound 34, N-[18-[6-methoxy-3-(pyrazol-1-yl)isoquinolin-1-yloxy]-2,15-dioxo-3,16-diazatricyclo[14.3.0.0^4,6]nonadec-7-ene-4-carbonyl](cyclopropyl)-sulfonamide] | 40 | 
10 | COc1ccc2c(O[C@@H]3C[C@H]4C(=O)N[C@]5(C(=O)O)C[C@H]5/C=C\CCCCCCC(=O)N4C3)cc(-c3nccs3)nc2c1Br [Compound 41, 18-[8-bromo-7-methoxy-2-(thiazol-2-yl)quinolin-4-yloxy]-2,15-dioxo-3,16-diazatricyclo[14.3.0.0^4,6]nonadec-7-ene-4-carboxylic acid] | 280 | 
11 | COc1ccc2c(O[C@@H]3C[C@H]4C(=O)N[C@]5(C(=O)NS(=O)(=O)C6CC6)C[C@H]5/C=C\CCCCCC(=O)N4C3)cc(-c3nc(C(C)C)cs3)nc2c1 [Compound 63, N-[17-[2-(4-isopropylthiazol-2-yl)-7-methoxyquinolin-4-yloxy]-2,14-dioxo-3,15-diazatricyclo[13.3.0.0^4,6]octadec-7-ene-4-carbonyl]-(cyclopropyl)sulfonamide] | 24 | 
12 | COc1ccc2c(O[C@@H]3C[C@H]4C(=O)N[C@]5(C(=O)O)C[C@H]5/C=C\CCCCCCC(=O)N4C3)nc(-n3cccn3)cc2c1 [Compound 33, 18-[6-methoxy-3-(pyrazol-1-yl)isoquinolin-1-yloxy]-2,15-dioxo-3,16-diazatricyclo[14.3.0.0^4,6]nonadec-7-ene-4-carboxylic acid] | 6100 | 
13 | COc1ccc2c(O[C@@H]3C[C@H]4C(=O)N[C@]5(C(=O)O)C[C@H]5/C=C\CCCCCC(=O)N4C3)cc(-c3nc(C(C)C)cs3)nc2c1C [Compound 58, 17-[2-(4-isopropylthiazol-2-yl)-7-methoxy-8-methylquinolin-4-yloxy]-2,14-dioxo-3,15-diazatricyclo[13.3.0.0^4,6]octadec-7-ene-4-carboxylic acid] | 1600 | 
14 | COc1ccc2c(O[C@@H]3C[C@H]4C(=O)N[C@]5(C(=O)O)C[C@H]5/C=C\CCCCCCC(=O)N4C3)cc(-c3csc(NC(C)C)n3)nc2c1 [Compound 12, 18-[2-[2-(isopropylamino)thiazol-4-yl]-7-methoxyquinolin-4-yloxy]-2,15-dioxo-3,16-diazatricyclo[14.3.0.0^4,6]nonadec-7-ene-4-carboxylic acid] | 1980 | 
15 | COc1ccc2c(O[C@@H]3C[C@H]4C(=O)N[C@]5(C(=O)O)C[C@H]5/C=C\CCCCCCC(=O)N4C3)cc(-c3cscn3)nc2c1 [Compound 35, 18-[7-methoxy-2-(thiazol-4-yl)quinolin-4-yloxy]-2,15-dioxo-3,16-diazatricyclo[14.3.0.0^4,6]nonadec-7-ene-4-carboxylic acid] | 1630 | 
16 | COc1ccc2c(O[C@@H]3C[C@H]4C(=O)N[C@]5(C(=O)NS(=O)(=O)C6CC6)C[C@H]5/C=C\CCCCCC(=O)N4C3)cc(-c3nc(C(C)C)cs3)nc2c1Cl [Compound 57, N-[17-[8-chloro-2-(4-isopropylthiazol-2-yl)-7-methoxyquinolin-4-yloxy]-2,14-dioxo-3,15-diazatricyclo[13.3.0.0^4,6]octadec-7-ene-4-carbonyl]-(cyclopropyl)sulfonamide] | 12 | 
17 | COc1ccc2c(O[C@@H]3C[C@H]4C(=O)N[C@]5(C(=O)NS(=O)(=O)C6(C)CC6)C[C@H]5/C=C\CCCCCC(=O)N4C3)cc(-c3nc(C(C)C)cs3)nc2c1C [Compound 60, N-[17-[2-(4-isopropylthiazol-2-yl)-7-methoxy-8-methylquinolin-4-yloxy]-2,14-dioxo-3,15-diazatricyclo[13.3.0.0^4,6]octadec-7-ene-4-carbonyl]-(1-methylcyclopropyl)sulfonamide] | 14 | 
18 | COc1ccc2c(O[C@@H]3C[C@H]4C(=O)N[C@]5(C(=O)NS(=O)(=O)C6(C)CC6)C[C@H]5/C=C\CCCCCC(=O)N4C3)cc(-c3nc(C(C)C)cs3)nc2c1Cl [Compound 61, N-[17-[8-chloro-2-(4-isopropylthiazol-2-yl)-7-methoxyquinolin-4-yloxy]-2,14-dioxo-3,15-diazatricyclo[13.3.0.0^4,6]octadec-7-ene-4-carbonyl]-(1-methylcyclopropyl)sulfonamide] | 1 | 
19 | COc1ccc2c(O[C@@H]3C[C@H]4C(=O)N[C@]5(C(=O)O)C[C@H]5/C=C\CCCCCC(C)(C)C(=O)N4C3)cc(-c3nc(C(C)C)cs3)nc2c1Cl [Compound 54, 18-[8-chloro-2-(4-isopropylthiazol-2-yl)-7-methoxyquinolin-4-yloxy]-14,14-dimethyl-2,15-dioxo-3,16-diazatricyclo[14.3.0.0^4,6]nonadec-7-ene-4-carboxylic acid] |  | ≥ 10000

Source: patent US7989471B2, “Macrocyclic inhibitors of hepatitis C virus” (Tibotec Pharmaceuticals Ltd., priority 2005, dated 2011)
